The target in test [1] is T1, 5-HT2A receptor (Homo sapiens, UniProt P28223). Nature of the test: 5-HT2AR calcium flux activation assay. The format is cell-based. The arrangement: expressed in transfected cells; host or cells: HEK293. Conditions: HEK293 cells stably expressing human 5-HT2A receptor; for EC50: FLIPR, Fluo-4, read-out: EC50; for Emax: Max Dose 100000 nM. Here is the method:
• 1) For cultured cells (HEK293 cells stably expressing human 5-HT2A receptor), they were first washed twice with pre-warmed DPBS, then an appropriate amount of trypsin was added for digestion at 37°C for 1 minute; an appropriate amount of the culture medium was then added to stop digestion, and 1 mL was taken for counting and vitality determination using Vi-CELL™. • 2) Cells were centrifuged at 1000 rpm for 5 minutes. • 3) The supernatant was gently discarded, being careful not to disturb the cell pellet. • 4) Cells were diluted with the culture medium to 1×10^6 cells/mL (20,000 cells/20 µL) and seeded into 384-well poly-lysine coated cell plates. They were cultured at 37°C under 5% CO2 for 16-20 hours.
• 1) Preparation of 250 mM Probenecid solution: According to the kit instructions, 77 mg of probenecid was added to 1 mL of FLIPR buffer salt solution. Prepared fresh for immediate use. • 2) Preparation of Fluo-4 Direct™ (2×, 8 µM) loading buffer: According to the kit instructions, the required amount of Fluo-4 Direct™ was thawed in advance. 10 mL of FLIPR buffer salt solution and 0.2 mL of 250 mM Probenecid solution were added to each vial. It was vortexed in the dark for >5 minutes. Prepared fresh for immediate use.
• 1) Preparation of control and test compound plates: Compounds were gradient diluted to 10 points using Echo, and 750 nL was transferred to the corresponding compound plate. • 2) 30 µL of assay buffer salt solution was added to the corresponding compound plate, which was then centrifuged at 1000 rpm for 1 minute; • 3) The cell plate prepared the day before was taken from the incubator, and 20 µL of 2× Fluo-4 Direct™ buffer was added to each well, making a total volume of 40 µL. • 4) The plate was incubated in a 5% CO2, 37°C incubator for 50 minutes, then left at room temperature for 10 minutes. • 5) The compound plate, the cell plate, and pipette tips were placed into the instrument; • 6) The FLIPR instrument software was run according to the set program, adding 10 µL of the specified concentrations of test compounds and control compounds to the cell plate, and fluorescence signals were read. After reading, data was exported using the "Max-Min", "Read 1 to 90" method in the software. • 7) Data analysis: Agonist Activation% = (RLU−DMSO)/(HC−DMSO)*100 [formula] • RLU: Relative Light Units, read values 1 to 90; • HC: Average fluorescence signal of the highest concentration point of the agonist; • DMSO: Average fluorescence signal of the DMSO group; • 8) Data was fitted using Prism 5.0.
For agonist: EC50 was fitted using "log(agonist) vs. response -- Variable slope". Table 2: 5-HT2AR Calcium Flux Activation Assay
(In general: A change in cytosolic calcium serves as a functional read-out for many receptors and channels.)

Test [2] deals with T1, 5-HT2A receptor. Put plainly: 5-HT2A receptor isotope competition affinity assay. The format is binding. The conditions noted are these: competition with [3H]-Ketanserin, 1 hour, room temperature; read-out: 5-HT2A receptor/Ki. Here is the method:
A radiolabeled ligand (agonist or antagonist) incubated with receptor protein could form a receptor-ligand complex. An added test compound could compete with the isotopically labeled ligand for the receptor binding, eventually forming a relative steady-state equilibrium. The affinity of the test compound for the receptor was indirectly evaluated by measuring the dissociation of the isotopically labeled ligand from the receptor.
A 100x serial gradient dilution of compounds was prepared in DMSO, starting from 1 mM with 4-fold serial dilutions, resulting in 10 concentration points. Using a pipettor, 1 µL of each gradient concentration of the test compound (final concentration starting at 10 µM, 4-fold serial dilutions, 10 concentration points) was transferred to a 96-well assay plate, to each well of which 49 µL of 5-HT2A receptor protein (102 µg/mL, prepared in an assay buffer: 50 mM Tris-HCl, pH 7.4) had been added in advance (final concentration 5 µg/well). This was followed by the addition of 50 µL of isotopically labeled [^3H]-Ketanserin (2 nM, 2× final concentration, prepared in the assay buffer). The plate was sealed and incubated on a shaker at room temperature for 1 hour. The reaction mixture was filtered through a Unifilter-96 GF/C filter plate pre-treated with 0.3% PEI. The filter plate was washed with a precooled (4°C) assay buffer and then dried in an incubator at 50°C. A scintillation liquid was added, and the plate was read using a MicroBeta2 instrument. The percentage inhibition was calculated using the equation: %Inhibition=(CountHigh Signal Control-CountSample)/(CountHigh Signal Control-CountLow Signal Control)*100. A four-parameter logistic fit was used to calculate the IC50 value. High Signal Control: No compound group (the same volume of DMSO substituted). Low Signal Control: Ketanserin group (non-isotopically labeled, 2× final concentration). Table 1: Results of 5-HT2A receptor isotope competition affinity assay, Ki Values

Test [3] relates to Mice (strain C57BL/6). Put plainly: Head-twitch response test in mice. The format is in vivo. The conditions noted are these: reflects hallucinogenic effect, Figure 1. Here is the method: (§1) • 1. Assay conditions and materials: • 1.1 Animal source: Mice (strain C57BL/6, purchased from Shanghai Lingchang Biotechnology Co., Ltd., 8-9 weeks old, 20-24 grams, male) • 1.2 Conditions: Temperature (20-25°C), relative humidity (40-70%), light cycle (12-hour light cycle (7:00-19:00)), free access to food and water • 1.3 Marking: Animals were marked on the tail. • 2. Assay procedure:
• A) Adaptation: Starting from the second day after the animals arrived, they were conciliated by stroking and acclimated for seven consecutive days to reduce their stress response. • B) Grouping: One hour before the assay test, animals were placed in the testing room for adaptation. On the test day, animals were randomly grouped according to body weight. Each group contained 12 animals. • C) Assay Dosing: Animal body weight was measured, and compounds were administered according to the group, with a dosing volume of 10 mL/kg for all. • D) Testing: After dosing, animals were placed in transparent observation chambers, and head-twitch behaviors were recorded over 60 minutes. • E) Assay test indicator: Total number of head-twitches within 60 minutes after dosing.

The subject of test [4] is Mice (strain C57BL/6). Put plainly: Forced swim test in naive mice 7 days after single administration. The format is in vivo. Conditions: compared to vehicle control group, p<0.05, Figure 2. How it is done:
as §1
• A) Adaptation: Starting from the second day after the animals arrived, they were conciliated by stroking and acclimated for seven consecutive days to reduce their stress response. • B) Behavioral test (FST test): Compound and Psilocybin groups (15 animals per group) continued to be housed for 7 days after dosing. On day 7, the Ketamine group (15 animals per group) was dosed 30 minutes before being placed, together with the compound and Psilocybin groups, into forced swim observation chambers for 6 minutes. Immobility time during the last 4 minutes was calculated. • C) Assay test indicator: Immobility time of animals during 2-6 minutes of the forced swim test.

SMILES strings stand for the structures.

T1 sequence (P28223 whole entry): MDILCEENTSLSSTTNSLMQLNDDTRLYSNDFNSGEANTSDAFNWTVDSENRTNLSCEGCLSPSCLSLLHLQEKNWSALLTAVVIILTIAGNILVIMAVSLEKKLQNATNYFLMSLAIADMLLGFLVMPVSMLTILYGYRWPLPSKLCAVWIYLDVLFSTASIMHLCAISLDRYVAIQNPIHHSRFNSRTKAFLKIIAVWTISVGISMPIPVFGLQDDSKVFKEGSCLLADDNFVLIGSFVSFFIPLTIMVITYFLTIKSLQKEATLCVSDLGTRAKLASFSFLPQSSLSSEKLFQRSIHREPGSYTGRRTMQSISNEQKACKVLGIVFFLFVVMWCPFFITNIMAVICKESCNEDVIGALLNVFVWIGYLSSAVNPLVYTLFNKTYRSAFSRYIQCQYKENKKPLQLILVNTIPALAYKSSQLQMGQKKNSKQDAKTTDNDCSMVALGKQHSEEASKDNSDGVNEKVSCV

As a reminder, the EC50 is the concentration that produces a half-maximal response. For orientation: Emax means the greatest response seen or fitted, relative to the assay's reference. As to `c1ccc2c(C3CCN(CCCc4ncon4)C3)c[nH]c2c1` (centres unmarked) [Compound 49, 3-(1-[3-(1,2,4-oxadiazol-3-yl)propyl]pyrrolidin-3-yl)-1H-indole], in test [1], the EC50 was 34 nM and the Emax was 47.6%. Also, the Ki in test [2] was below 100 nM. For the same compound, the “Total number of head-twitches within 60 minutes after dosing” value (shortened to “Total number”) in test [3] (dose 30 mpk) was “did not cause significant head-twitch behavior”.
In the same order, the values of `Oc1cccc2[nH]cc([C@@H]3CCN(CCCn4nccn4)C3)c12` [Compound 182, (S)-3-(1-(3-(2H-1,2,3-triazol-2-yl)propyl)pyrrolidin-3-yl)-1H-indol-4-ol] are 21.1 nM, 57.4%, below 100 nM and “did not cause significant head-twitch behavior”.
Consider `Oc1cccc2[nH]cc(C3CCN(CCCn4nccn4)C3)c12` (centres unmarked) [Compound 180, 3-(1-(3-(2H-1,2,3-triazol-2-yl)propyl)pyrrolidin-3-yl)-1H-indol-4-ol], for which, in test [1], the EC50 amounted to 9.95 nM and the Emax is 59.3%. Also, the Ki in test [2] is below 100 nM. The “Immobility time of animals during 2-6 minutes of the forced swim test” value in test [4] was “significantly reduced immobility time”. Further, the “Total number” value in test [3] (dose 30 mpk) is on record as “did not cause significant head-twitch behavior”.
In the case of `COc1cc(CC(C)N)c(OC)cc1I` (centres unmarked) [DOI, reference compound], the “Total number” value in test [3] (dose 3 mpk) was “significant head-twitch behavior”.

Values taken from patent EP4752142A1, “5-HT2A RECEPTOR AGONIST, AND PREPARATION METHOD THEREFOR AND USE THEREOF” (Innovstone Therapeutics Limited, priority 2023, dated 2025).
